Values joined by “and” are separate entries in the source; they are usually repeats but may differ in a detail not shown here. Identical values can stand only once.
Test system: 616215-338-R-J1-PDC complex spheroid viability
Assay: Anticancer human tumor 616215-338-R-J1-PDC patient-derived colon adenocarcinoma cell line growth inhibition [RAS]
Conditions: for viability, T/C: stronger effect = lower value; for IC50: curve of first compound
From the text: RAS pathway inhibitors in Combinations in Complex Spheroids
A high-throughput screen of multi-cell type tumor spheroids was designed to identify active combinations of RAS pathway inhibitors and targeted small molecules. Complex spheroids include a stromal component modeled by human endothelial cells (HUVEC) and fibroblasts modeled by human mesenchymal stem cells (MSCs). The concentration ranges selected for each drug and investigational agent were based upon clinically achievable concentrations if the clinical Cmax of the agent was known.
Compounds. The drugs and investigational agents: abemaciclib (NSC768073), cobimetinib (NSC768068), divarasib (GDC6063, NSC841802), docetaxel (NSC628503), GDC-1971 (RLY-1971, NSC841576), gemcitabine (NSC613327), inavolisib (NSC800729), ipatasertib (NSC767898), KB-0742 (NSC834161), MRTX-1133 (NSC836407), osimertinib (NSC779217), RMC-4630 (NSC839698), RMC-6236 (NSC851965), RMC-6291 (NSC852671), Ro-3306 (NSC812927), sapanisertib (NSC764658), SN-38 (NSC673596), staurosporine (NSC755774), SY5609 (NSC837396), and tovorafenib (DAY101, NSC766906), were obtained from the National Cancer Institute (NCI) Developmental Therapeutics Program Chemical Repository. The FDA-approved anticancer drug set is available from the NCI Developmental Therapeutics Program. […] The stock solutions were prepared in dimethyl sulfoxide (DMSO, Sigma-Aldrich, St. Louis, MO, cat. D2650) at 800-fold the tested concentration and stored at -70 degrees C prior to their use. All drugs and investigational agents were tested over a range starting from a high concentration at or near the clinical Cmax and decreasing in half-log increments. If the clinical Cmax for an agent had not been determined, the highest concentration tested was 10 microM.
Cell Culture. All cells were maintained in an incubator at 37 degrees C and 5% CO2 with 95% humidity. The PDC lines were cultured according to standard operating procedures established by the NCI PDMR. All PDCs were thawed and cultured in Matrigel-coated flasks prepared with a working solution of 1X Ham's F-12 nutrient mix, without supplementation (Invitrogen, Waltham, MA, cat. 11765054), 100 U/mL penicillin-streptomycin (Invitrogen, cat. 15140122), and 2.5% Matrigel (Corning Inc., Corning, NY, cat. 354248) for the first three passages. The 362531-283-R-J2-PDC and 782815-120-R-J1-PDC lines were cultured in 6C/Colon 1B media, which includes advanced DMEM/F-12 (Thermo Fisher Scientific, cat. 12634028), 10 mM HEPES (Thermo Fisher Scientific, cat. 15630080), 1X GlutaMAX supplement (Thermo Fisher Scientific, cat. 35050061), 0.1 mg/mL primocin (InvivoGen, San Diego, CA, cat. ant-pm-2), 10% defined fetal bovine serum, heat inactivated (HyClone Laboratories Inc., Logan, UT, cat. SH30070.03HI), 50% L-WRN conditioned media (ATCC, cat. CRL-3276), 1.25 mM N-Acetyl-L-cysteine (Sigma-Aldrich, cat. A9165), 10 mM nicotinamide (Sigma-Aldrich, cat. N0636), 1X B-27 supplement (Thermo Fisher Scientific, cat. 17504044), 1X N-2 supplement (Thermo Fisher Scientific, cat. 17502048), 50 ng/mL human EGF (Thermo Fisher Scientific, cat. PHG0311), and 10 microM Y-27632 dihydrochloride (Tocris Bioscience, cat. 1254). The K12877-001-R-J1-PDC line was cultured in 6I media, which includes all 6C/Colon 1B media plus 10 ng/mL human FGF-10 (PeproTech, cat. 100-26), 1 ng/mL human FGF-2 (PeproTech, cat. 100-18B), 1 µM prostaglandin E2 (Tocris Bioscience, cat. 2296), […] hydrocortisone (Sigma-Aldrich, cat. H4001), and […] bovine insulin (Sigma-Aldrich, cat. I6634). The K86415-001-R-J1-PDC line was cultured in 6D media, which includes all 6C/Colon 1B media components minus the L-WRN conditioned media. The 485176-168-R4-J1-PDC was cultured in PANC media, which includes all 6C/Colon 1B media plus 100 ng/mL human FGF-10 (PeproTech, cat. 100-26), 500 nM SB-431542 (Selleckchem, cat. S1067), and 10 nM gastrin (Tocris Bioscience, cat. 3006). […]
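Further: spheroids exposed to agents for seven days before viability readout.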
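Wherever viability, T/C is given: 100% = DMSO vehicle control viability.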

With `CC(C)NCC(C(=O)N1CCN(c2ncnc3c2C(C)CC3O)CC1)c1ccc(Cl)cc1` (stereo not drawn) the viability, T/C (compound 0.0316 µM) was 105% [middle of 4 runs], the viability, T/C (compound 0.1 µM) was 100% [middle of 4 runs] and the viability, T/C (compound 0.316 µM) was 100% [middle of 4 runs]. The viability, T/C (compound 1 µM) was 101% [middle of 4 runs], the viability, T/C (compound 3.16 µM) was 95.3% (2×) and 87.8% and 95.7% and the viability, T/C (compound 10 µM) was 49.3% [middle of 4 runs].
`C[C@@H](NC(=O)c1ncnc(N)c1Cl)c1ncc(C(=O)Nc2cc(C(F)(F)F)c(Cl)cn2)s1` + CCn1c(-c2cc(N3CCN(C)CC3)cnc2C(C)OC)c2c3cc(ccc31)-c1csc(n1)CC(NC(=O)C1CC1C)C(=O)N1CCCC(N1)C(=O)OCC(C)(C)C2 showed an IC50 (second compound 0.000949 µM) of 8.75 µM, an IC50 (second compound 0.003 µM) of 6.94 µM and an IC50 (second compound 0.00949 µM) of 1.57 µM. The IC50 (second compound 0.03 µM) was 0.243 µM, the IC50 (second compound 0.0949 µM) was under 0.0316 µM and the IC50 (second compound 0.3 µM) was under 0.0316 µM. The viability, T/C (second compound 0.000949 µM, first compound 0.0316 µM) was 102%, the viability, T/C (second compound 0.000949 µM, first compound 0.1 µM) was 104% and the viability, T/C (second compound 0.000949 µM, first compound 0.316 µM) was 117%. For the same compound, the viability, T/C (second compound 0.000949 µM, first compound 1 µM) was 105%, the viability, T/C (second compound 0.000949 µM, first compound 3.16 µM) was 96.3% and the viability, T/C (second compound 0.000949 µM, first compound 10 µM) was 43.9%. It also gave a viability, T/C (second compound 0.003 µM, first compound 0.0316 µM) of 114%, a viability, T/C (second compound 0.003 µM, first compound 0.1 µM) of 129% and a viability, T/C (second compound 0.003 µM, first compound 0.316 µM) of 102%. The viability, T/C (second compound 0.003 µM, first compound 1 µM) was 87.2%, the viability, T/C (second compound 0.003 µM, first compound 3.16 µM) was 66.2% and the viability, T/C (second compound 0.003 µM, first compound 10 µM) was 42.6%. It also gave a viability, T/C (second compound 0.00949 µM, first compound 0.0316 µM) of 95.3%, a viability, T/C (second compound 0.00949 µM, first compound 0.1 µM) of 78% and a viability, T/C (second compound 0.00949 µM, first compound 0.316 µM) of 72.5%. It also gave a viability, T/C (second compound 0.00949 µM, first compound 1 µM) of 61%, a viability, T/C (second compound 0.00949 µM, first compound 3.16 µM) of 35.8% and a viability, T/C (second compound 0.00949 µM, first compound 10 µM) of 21.4%. For the same compound, the viability, T/C (second compound 0.03 µM, first compound 0.0316 µM) was 58.9%, the viability, T/C (second compound 0.03 µM, first compound 0.1 µM) was 62.2% and the viability, T/C (second compound 0.03 µM, first compound 0.316 µM) was 42.3%. For the same compound, the viability, T/C (second compound 0.03 µM, first compound 1 µM) was 41.1%, the viability, T/C (second compound 0.03 µM, first compound 3.16 µM) was 30% and the viability, T/C (second compound 0.03 µM, first compound 10 µM) was 25.1%. The viability, T/C (second compound 0.0949 µM, first compound 0.0316 µM) was 41.9%, the viability, T/C (second compound 0.0949 µM, first compound 0.1 µM) was 57.1% and the viability, T/C (second compound 0.0949 µM, first compound 0.316 µM) was 38.5%. The viability, T/C (second compound 0.0949 µM, first compound 1 µM) was 33.2%, the viability, T/C (second compound 0.0949 µM, first compound 3.16 µM) was 23.2% and the viability, T/C (second compound 0.0949 µM, first compound 10 µM) was 16.6%. It also gave a viability, T/C (second compound 0.3 µM, first compound 0.0316 µM) of 36.3%, a viability, T/C (second compound 0.3 µM, first compound 0.1 µM) of 35.6% and a viability, T/C (second compound 0.3 µM, first compound 0.316 µM) of 39%. The viability, T/C (second compound 0.3 µM, first compound 1 µM) was 33.7%, the viability, T/C (second compound 0.3 µM, first compound 3.16 µM) was 22.6% and the viability, T/C (second compound 0.3 µM, first compound 10 µM) was 13.2%.

Reference: PubChem BioAssay AID2060898 (Molecular Pharmacology Branch, DTP, NCI, 2025)
